Patent US7834040B2, “Isoxazolic derivative to relieve neuropathic pain” (Zambon S.p.A., priority 2004, dated 2010)
Entries after “also recorded” stand apart in the source; their conditions may differ.

Key:
neuropathic pain = settings: Rashid et al., J. Pharmacol. Exp. Ther. 303:226-231, 2002; cited from earlier work
[1] = tested on: neuropathic pain caused by chronic constrictive lesion of the sciatic nerve of the rat's hind leg (CCI); experiment: Mechanical allodinia in the CCI model of neuropathic pain (chronic constrictive lesion of the sciatic nerve); assay type: in vivo, male rats of Wistar strain
Description: The effectiveness of the compound of formula (I) has been tested experimentally in two different models of neuropathic pain caused by chronic constrictive lesion of the sciatic nerve of the rat's hind leg (CCI) and by the ligament of the rat's spinal nerve (SNL), according to the procedure reported in the following experimental part. To a group of male rats of Wistar strain a peripheral neuropathy has been induced by means of ligature of the sciatic nerve (CCI) according to the Bennet and Xie model (Pain 33:87-107, 1988). In order to evaluate the neuropathic pain, the development of mechanical allodinia was measured by calculating the average of the pain perception thresholds in the animals' legs in response to mechanical stimuli, following the method described by Chaplan et al. (Journal Neurosci. Method. 53:55-63, […]). In the first group of experiments the measurements have been carried out before and 14 days after the ligature of the […] (CCI). In the second group of experiments the same parameter has been similarly evaluated before and 14 days after the ligature of the spinal nerve (SNL). In both groups, the mechanical allodinia threshold has been measured before (pre-treatment) and 0.5, 1, 2, 4 and 6 hours after treatment by oral route with the compound of formula (I) at doses of 3, 30 and 300 mg/kg.

[2] = tested on: neuropathic pain caused by the ligament of the rat's spinal nerve (SNL); experiment: Mechanical allodinia in the SNL model of neuropathic pain (ligature of the spinal nerve); assay type: in vivo, male rats of Wistar strain
Description: The effectiveness of the compound of formula (I) has been tested experimentally in two different models of neuropathic pain caused by chronic constrictive lesion of the sciatic nerve of the rat's hind leg (CCI) and by the ligament of the rat's spinal nerve (SNL), according to the procedure reported in the following experimental part. To a second group of male rats of Wistar strain a peripheral neuropathy has been induced by means of ligature of the spinal nerve according to the modified method described by Kim and Chung and which is constituted by the ligature of two (L5-L6) of the three spinal nerves which form the sciatic nerve (Pain 50:355-363, 1992). In order to evaluate the neuropathic pain, the development of mechanical allodinia was measured by calculating the average of the pain perception thresholds in the animals' legs in response to mechanical stimuli, following the method described by Chaplan et al. (Journal Neurosci. Method. 53:55-63, […]). In the first group of experiments the measurements have been carried out before and 14 days after the ligature of the […] (CCI). In the second group of experiments the same parameter has been similarly evaluated before and 14 days after the ligature of the spinal nerve (SNL). In both groups, the mechanical allodinia threshold has been measured before (pre-treatment) and 0.5, 1, 2, 4 and 6 hours after treatment by oral route with the compound of formula (I) at doses of 3, 30 and 300 mg/kg.

[3] = oral route, 3, 30 and 300 mg/kg, 0.5-6 hours after treatment, 14 days after ligature

NC(=O)CN1CCCC1=O [piracetam]
analgesic effect with respect to the neuropathic pain (neuropathic pain): do not produce significant analgesic effects

Cc1cccc(C)c1NC(=O)CN1CCCC1=O [nefiracetam]
analgesic effect with respect to the neuropathic pain (neuropathic pain): powerful analgesic effect

NC(=O)CN1CC(O)CC1=O (stereo not shown) [oxiracetam]
analgesic effect with respect to the neuropathic pain (neuropathic pain): do not produce significant analgesic effects

Cc1cc(C(=O)NCCCC(=O)O)on1 [compound of formula (I)]
dose from which the antiallodinic effect is statistically significative ([1]; oral route): ≥ 3 mg/kg
time after treatment up to which the antiallodinic effect is detected ([1]; oral route): up to 6 hours
mechanical allodinia (pain perception threshold to mechanical stimuli) [1, 3]: reduced in a dose-depending way the mechanical allodinia; also recorded: marked reduction in the neuropathic allodinia
dose from which the antiallodinic effect is statistically significative ([2]; oral route): ≥ 3 mg/kg
time after treatment up to which the antiallodinic effect is detected ([2]; oral route): up to 6 hours
mechanical allodinia (pain perception threshold to mechanical stimuli) [2, 3]: reduced in a dose-depending way the mechanical allodinia; also recorded: marked reduction in the neuropathic allodinia

CC[C@H](C(N)=O)N1CCCC1=O [levitiracetam]
analgesic effect with respect to the neuropathic pain (neuropathic pain): do not produce significant analgesic effects
